# Tested on: MV-4-11 cells
# Assay: Gene expression microarray analysis (Affymetrix PrimeView) and GSEA
# Format: cell-based, human
# Design: RFU PODN (11730768_x_at) / Fold change /veh PODN (11730768_x_at) / RFU LINC00158 (11744669_a_at) / Fold change /veh LINC00158 (11744669_a_at) / RFU DUSP10 (11751237_a_at) / Fold change /veh DUSP10 (11751237_a_at) / RFU ID3 (11757404_x_at) / Fold change /veh ID3 (11757404_x_at) / RFU PLEKHG5 (11737974_s_at) / Fold change /veh PLEKHG5 (11737974_s_at) / RFU LRRC4B (11730491_at) / Fold change /veh LRRC4B (11730491_at) / RFU GIMAP4 (11747438_a_at) / Fold change /veh GIMAP4 (11747438_a_at) / RFU KRT8 (11758183_x_at) / Fold change /veh KRT8 (11758183_x_at) / RFU CNN1 (11734310_a_at) / Fold change /veh CNN1 (11734310_a_at) / RFU VPS37D (11726825_at) / Fold change /veh VPS37D (11726825_at) / RFU C10orf10 (11716522_x_at) / Fold change /veh C10orf10 (11716522_x_at) / RFU KIR2DL2 /// KIR2DL4 /// KIR2DL5A /// KIR2DL5B /// KIR2DS1 /// KIR2DS2 /// KIR2DS3 /// KIR2DS4 /// KIR3DL3 /// KIR3DL3 /// KIR3DS1 (11738374_at) / Fold change /veh KIR2DL2 /// KIR2DL4 /// KIR2DL5A /// KIR2DL5B /// KIR2DS1 /// KIR2DS2 /// KIR2DS3 /// KIR2DS4 /// KIR3DL3 /// KIR3DL3 /// KIR3DS1 (11738374_at) / RFU C1QL1 (11718748_at) / Fold change /veh C1QL1 (11718748_at) / RFU TMPRSS4 (11747572_a_at) / Fold change /veh TMPRSS4 (11747572_a_at) / RFU HAMP (11756126_x_at) / Fold change /veh HAMP (11756126_x_at) / RFU RNFT2 (11725882_a_at) / Fold change /veh RNFT2 (11725882_a_at) / RFU NR4A2 (11747474_a_at) / Fold change /veh NR4A2 (11747474_a_at) / RFU ABCC12 (11746883_a_at) / Fold change /veh ABCC12 (11746883_a_at) / RFU TMEM136 (11760407_x_at) / Fold change /veh TMEM136 (11760407_x_at) / RFU CLDN22 /// WWC2 (11732394_at) / Fold change /veh CLDN22 /// WWC2 (11732394_at) / RFU HLA-DPB1 (11760878_x_at) / Fold change /veh HLA-DPB1 (11760878_x_at) / RFU SPINT1 (11716480_a_at) / Fold change /veh SPINT1 (11716480_a_at) / RFU GAP43 (11754022_s_at) / Fold change /veh GAP43 (11754022_s_at) / RFU A4GNT (11735810_at) / Fold change /veh A4GNT (11735810_at) / RFU PRB3 (11715151_x_at) / Fold change /veh PRB3 (11715151_x_at) / RFU TUBB4B (11761932_at) / Fold change /veh TUBB4B (11761932_at) / RFU CAPN14 (11732068_a_at) / Fold change /veh CAPN14 (11732068_a_at) / RFU TMCC2 (11721928_a_at) / Fold change /veh TMCC2 (11721928_a_at) / RFU IRGQ (11745062_a_at) / Fold change /veh IRGQ (11745062_a_at) / RFU FAM174B (11720279_a_at) / Fold change /veh FAM174B (11720279_a_at) / RFU TMPRSS4 (11748680_a_at) / Fold change /veh TMPRSS4 (11748680_a_at) / RFU FAM212B (11763350_a_at) / Fold change /veh FAM212B (11763350_a_at) / RFU PLEKHG5 (11743358_a_at) / Fold change /veh PLEKHG5 (11743358_a_at) / RFU ZSCAN30 (11745921_a_at) / Fold change /veh ZSCAN30 (11745921_a_at) / RFU CMKLR1 (11741424_a_at) / Fold change /veh CMKLR1 (11741424_a_at) / RFU LOC101060620 /// MAPK8IP1 (11723275_at) / Fold change /veh LOC101060620 /// MAPK8IP1 (11723275_at) / RFU SPTSSB (11747773_x_at) / Fold change /veh SPTSSB (11747773_x_at) / RFU PRSS12 (11739890_at) / Fold change /veh PRSS12 (11739890_at) / RFU BIN1 (11741810_x_at) / Fold change /veh BIN1 (11741810_x_at) / RFU WNT11 (11732464_a_at) / Fold change /veh WNT11 (11732464_a_at) / RFU C10orf10 (11716521_a_at) / Fold change /veh C10orf10 (11716521_a_at) / RFU C5orf56 (11738089_at) / Fold change /veh C5orf56 (11738089_at) / RFU CYB561 (11721691_x_at) / Fold change /veh CYB561 (11721691_x_at) / RFU ANKRD19P (11752326_a_at) / Fold change /veh ANKRD19P (11752326_a_at) / RFU OR2T12 /// OR2T33 /// OR2T8 (11738714_s_at) / Fold change /veh OR2T12 /// OR2T33 /// OR2T8 (11738714_s_at) / RFU VCAN (11748164_a_at) / Fold change /veh VCAN (11748164_a_at) / RFU JSRP1 (11732532_at) / Fold change /veh JSRP1 (11732532_at) / RFU KRTAP10-11 (11738290_x_at) / Fold change /veh KRTAP10-11 (11738290_x_at) / RFU MYO3A (11730013_a_at) / Fold change /veh MYO3A (11730013_a_at) / RFU EBF3 (11725865_a_at) / Fold change /veh EBF3 (11725865_a_at) / RFU CAMK2N1 (11719241_x_at) / Fold change /veh CAMK2N1 (11719241_x_at) / RFU C5orf56 (11738088_a_at) / Fold change /veh C5orf56 (11738088_a_at) / RFU OLFML3 (11715873_a_at) / Fold change /veh OLFML3 (11715873_a_at) / RFU LOC100653217 /// NTM (11731650_a_at) / Fold change /veh LOC100653217 /// NTM (11731650_a_at) / RFU MAPK11 (11762145_a_at) / Fold change /veh MAPK11 (11762145_a_at) / RFU FIZ1 (11724087_x_at) / Fold change /veh FIZ1 (11724087_x_at) / RFU OASL (11726364_x_at) / Fold change /veh OASL (11726364_x_at) / RFU SOX15 (11748057_x_at) / Fold change /veh SOX15 (11748057_x_at) / RFU CD79A (11719716_a_at) / Fold change /veh CD79A (11719716_a_at) / RFU HIST1H1D (11736915_at) / Fold change /veh HIST1H1D (11736915_at) / RFU CASKIN2 (11723855_a_at) / Fold change /veh CASKIN2 (11723855_a_at) / RFU LOC730098 (11760151_x_at) / Fold change /veh LOC730098 (11760151_x_at) / RFU OR4N2 (11742367_at) / Fold change /veh OR4N2 (11742367_at) / RFU PRRT2 (11749266_a_at) / Fold change /veh PRRT2 (11749266_a_at) / RFU SNX32 (11753110_a_at) / Fold change /veh SNX32 (11753110_a_at) / RFU CDHR5 (11726645_a_at) / Fold change /veh CDHR5 (11726645_a_at) / RFU RCAN1 (11760418_a_at) / Fold change /veh RCAN1 (11760418_a_at) / RFU FAM167A (11723789_a_at) / Fold change /veh FAM167A (11723789_a_at) / RFU FAM26E (11764081_at) / Fold change /veh FAM26E (11764081_at) / RFU ISYNA1 (11749810_s_at) / Fold change /veh ISYNA1 (11749810_s_at) / RFU ACY1 (11761880_at) / Fold change /veh ACY1 (11761880_at) / RFU 11764098_at / Fold change /veh 11764098_at / RFU SAMD14 (11745864_x_at) / Fold change /veh SAMD14 (11745864_x_at) / RFU NPB (11741838_a_at) / Fold change /veh NPB (11741838_a_at) / RFU TMPRSS6 (11731388_a_at) / Fold change /veh TMPRSS6 (11731388_a_at) / RFU KRTAP10-2 (11738614_at) / Fold change /veh KRTAP10-2 (11738614_at) / RFU ARHGAP8 /// PRR5-ARHGAP8 (11727945_x_at) / Fold change /veh ARHGAP8 /// PRR5-ARHGAP8 (11727945_x_at) / RFU KRTAP5-7 /// NADSYN1 (11734609_at) / Fold change /veh KRTAP5-7 /// NADSYN1 (11734609_at) / RFU RASL12 (11751679_a_at) / Fold change /veh RASL12 (11751679_a_at) / RFU CDKN2B (11736163_a_at) / Fold change /veh CDKN2B (11736163_a_at) / RFU PRF1 (11729649_at) / Fold change /veh PRF1 (11729649_at) / RFU, ZNF638 /// ZNF638-IT1 / Fold change vs veh, ZNF638 /// ZNF638-IT1 / RFU, PANK3 / Fold change vs veh, PANK3 / RFU, SH3YL1 / Fold change vs veh, SH3YL1 / RFU, ZEB2 / Fold change vs veh, ZEB2 / RFU, NRIP1 / Fold change vs veh, NRIP1 / RFU, PTTG1IP / Fold change vs veh, PTTG1IP / RFU, CAPN2 / Fold change vs veh, CAPN2 / RFU, MED14 / Fold change vs veh, MED14 / RFU, SNORA58 / Fold change vs veh, SNORA58 / RFU, C1orf63 / Fold change vs veh, C1orf63 / RFU, LRRFIP1 / Fold change vs veh, LRRFIP1 / RFU, NDUFAF7 / Fold change vs veh, NDUFAF7 / RFU, SLC12A2 / Fold change vs veh, SLC12A2 / RFU, IBTK / Fold change vs veh, IBTK / RFU, ESF1 / Fold change vs veh, ESF1 / Fold change vs veh, TMEM50B / RFU, TAOK1 / Fold change vs veh, TAOK1 / RFU, ACBD3 / Fold change vs veh, ACBD3 / RFU, TMA16 / Fold change vs veh, TMA16 / RFU, RWDD3 / Fold change vs veh, RWDD3 / RFU, BCAT1 / Fold change vs veh, BCAT1 / RFU, EDEM3 / Fold change vs veh, EDEM3 / RFU, TMEM33 / Fold change vs veh, TMEM33 / RFU, WDR75 / Fold change vs veh, WDR75 / RFU, AHCTF1 / Fold change vs veh, AHCTF1 / RFU, TFRC / Fold change vs veh, TFRC / RFU, ZDHHC17 / Fold change vs veh, ZDHHC17 / RFU, NOM1 / Fold change vs veh, NOM1 / RFU, ARL8B / Fold change vs veh, ARL8B / RFU, ZBTB11 / Fold change vs veh, ZBTB11 / RFU, TAMM41 / Fold change vs veh, TAMM41 / RFU, KIAA1704 /// LOC100996395 / Fold change vs veh, KIAA1704 /// LOC100996395 / RFU, ING1 / Fold change vs veh, ING1 / RFU, TRMT61B / Fold change vs veh, TRMT61B / RFU, FUBP3 / Fold change vs veh, FUBP3 / RFU, TP53 / Fold change vs veh, TP53 / RFU, TNKS2 / Fold change vs veh, TNKS2 / RFU, ZFP14 / Fold change vs veh, ZFP14 / RFU, ACTR2 / Fold change vs veh, ACTR2 / RFU, PPP3R1 / Fold change vs veh, PPP3R1 / RFU, PIK3R1 / Fold change vs veh, PIK3R1 / RFU, HNRNPA1 / Fold change vs veh, HNRNPA1 / RFU, RNF170 / Fold change vs veh, RNF170 / RFU, ZNF28 / Fold change vs veh, ZNF28 / RFU, RNGTT / Fold change vs veh, RNGTT / RFU, OGT / Fold change vs veh, OGT / RFU, BRD1 / Fold change vs veh, BRD1 / RFU, MARS / Fold change vs veh, MARS / RFU, ZNF655 / Fold change vs veh, ZNF655 / RFU, FAHD1 / Fold change vs veh, FAHD1 / RFU, BDP1 / Fold change vs veh, BDP1 / RFU, LRRCC1 / Fold change vs veh, LRRCC1 / RFU, ARID1A / Fold change vs veh, ARID1A / RFU, ZNF146 / Fold change vs veh, ZNF146 / RFU, ZNF330 / Fold change vs veh, ZNF330 / RFU, GPN3 / Fold change vs veh, GPN3 / RFU, C9orf123 / Fold change vs veh, C9orf123 / RFU, N4BP2L2 / Fold change vs veh, N4BP2L2 / RFU, ARFIP1 / Fold change vs veh, ARFIP1 / RFU, FAM179B / Fold change vs veh, FAM179B / RFU, BCL10 / Fold change vs veh, BCL10 / RFU, UHRF1BP1L / Fold change vs veh, UHRF1BP1L / RFU, BET1 / Fold change vs veh, BET1 / RFU, CNOT2 / Fold change vs veh, CNOT2 / RFU, ZNF268 / Fold change vs veh, ZNF268 / Fold change vs veh, ZNF507 / RFU, DGCR2 / Fold change vs veh, DGCR2 / RFU, WDSUB1 / Fold change vs veh, WDSUB1 / Fold change vs veh, HSP90B1 /// MIR3652 / RFU, ADSS / Fold change vs veh, ADSS / RFU, GK / Fold change vs veh, GK / RFU, ZNF148 / Fold change vs veh, ZNF148 / RFU, TAF9 / Fold change vs veh, TAF9 / RFU, SLC1A5 / Fold change vs veh, SLC1A5 / RFU, SLMO2 / Fold change vs veh, SLMO2 / RFU, ABCC4 / Fold change vs veh, ABCC4 / RFU, LOC101060439 /// RAP1B / Fold change vs veh, LOC101060439 /// RAP1B / RFU, RFX7 / Fold change vs veh, RFX7 / RFU, GTPBP10 / Fold change vs veh, GTPBP10 / RFU, CNEP1R1 / Fold change vs veh, CNEP1R1 / RFU, BIVM-ERCC5 /// ERCC5 / Fold change vs veh, BIVM-ERCC5 /// ERCC5 / RFU, ILF3 / Fold change vs veh, ILF3 / RFU 11762660_at / Fold change /veh 11762660_at / RFU VCAN (11757783_s_at) / Fold change /veh VCAN (11757783_s_at) / RFU DDX43 (11728927_at) / Fold change /veh DDX43 (11728927_at) / RFU KRT8 (11758188_x_at) / Fold change /veh KRT8 (11758188_x_at) / RFU NKD1 (11759106_at) / Fold change /veh NKD1 (11759106_at) / RFU SRD5A1 (11742802_a_at) / Fold change /veh SRD5A1 (11742802_a_at) / RFU TPSAB1 /// TPSB2 (11721975_s_at) / Fold change /veh TPSAB1 /// TPSB2 (11721975_s_at) / RFU GSTM3 (11746129_a_at) / Fold change /veh GSTM3 (11746129_a_at) / RFU IL23R (11737362_x_at) / Fold change /veh IL23R (11737362_x_at) / RFU TMEM51 (11727254_a_at) / Fold change /veh TMEM51 (11727254_a_at) / RFU PIWIL2 (11732686_x_at) / Fold change /veh PIWIL2 (11732686_x_at) / RFU ORM1 (11744905_x_at) / Fold change /veh ORM1 (11744905_x_at) / RFU CCDC152 (11743942_at) / Fold change /veh CCDC152 (11743942_at) / RFU ECM1 (11717891_a_at) / Fold change /veh ECM1 (11717891_a_at) / RFU IL23R (11748794_a_at) / Fold change /veh IL23R (11748794_a_at) / RFU TNFAIP8L3 (11732012_x_at) / Fold change /veh TNFAIP8L3 (11732012_x_at) / RFU MBOAT4 (11741988_at) / Fold change /veh MBOAT4 (11741988_at) / RFU 11764193_at / Fold change /veh 11764193_at / RFU TMEM53 (11763286_at) / Fold change /veh TMEM53 (11763286_at) / RFU MAGEB2 (11727129_at) / Fold change /veh MAGEB2 (11727129_at) / RFU TMEM200A (11744735_a_at) / Fold change /veh TMEM200A (11744735_a_at) / RFU CCDC152 (11751479_a_at) / Fold change /veh CCDC152 (11751479_a_at) / RFU FAM211A (11726209_a_at) / Fold change /veh FAM211A (11726209_a_at) / RFU RGS16 (11746705_a_at) / Fold change /veh RGS16 (11746705_a_at) / RFU VCAN (11755009_s_at) / Fold change /veh VCAN (11755009_s_at) / RFU RHOB (11743442_s_at) / Fold change /veh RHOB (11743442_s_at) / RFU RGS16 (11720943_a_at) / Fold change /veh RGS16 (11720943_a_at) / RFU RGS16 (11720944_at) / Fold change /veh RGS16 (11720944_at) / RFU, VPS4B / Fold change vs veh, VPS4B / RFU, CREB1 / Fold change vs veh, CREB1 / RFU, DNAJC13 / Fold change vs veh, DNAJC13 / RFU, GNAQ / Fold change vs veh, GNAQ / RFU, CDK5R1 / Fold change vs veh, CDK5R1 / RFU, ZRANB3 / Fold change vs veh, ZRANB3 / RFU, CUL4A / Fold change vs veh, CUL4A / RFU, CCNY / Fold change vs veh, CCNY / RFU, UFL1 / Fold change vs veh, UFL1 / RFU, COG3 / Fold change vs veh, COG3 / RFU, DIAPH2 / Fold change vs veh, DIAPH2 / RFU, SKA2 / Fold change vs veh, SKA2 / RFU, AFF3 / Fold change vs veh, AFF3 / RFU, LMF1 / Fold change vs veh, LMF1 / RFU, IPO11 / Fold change vs veh, IPO11 / RFU, DFFB / Fold change vs veh, DFFB / RFU, FOXP1 / Fold change vs veh, FOXP1 / RFU, CARD8 / Fold change vs veh, CARD8 / RFU, STRN3 / Fold change vs veh, STRN3 / RFU, ADK / Fold change vs veh, ADK / RFU, RASSF2 / Fold change vs veh, RASSF2 / RFU, WIPF1 / Fold change vs veh, WIPF1 / RFU, LARP1B / Fold change vs veh, LARP1B / RFU, RASA1 / Fold change vs veh, RASA1 / RFU, RB1 / Fold change vs veh, RB1 / RFU, PPFIA1 / Fold change vs veh, PPFIA1 / RFU, MAT2A / Fold change vs veh, MAT2A / RFU, CCT5 / Fold change vs veh, CCT5 / RFU, WDR92 / Fold change vs veh, WDR92 / RFU, CUX1 / Fold change vs veh, CUX1 / RFU, TTC7A / Fold change vs veh, TTC7A / RFU, TMEM135 / Fold change vs veh, TMEM135 / RFU, DEPTOR / Fold change vs veh, DEPTOR / RFU, CPM / Fold change vs veh, CPM / RFU, DNAJB6 / Fold change vs veh, DNAJB6 / RFU, CACNA2D3 / Fold change vs veh, CACNA2D3 / RFU, DTX4 / Fold change vs veh, DTX4 / RFU, TFCP2 / Fold change vs veh, TFCP2 / RFU, GMCL1 /// GMCL1P1 / Fold change vs veh, GMCL1 /// GMCL1P1 / RFU, AEBP2 / Fold change vs veh, AEBP2 / RFU, SNHG1 /// SNORD22 /// SNORD25 /// SNORD26 /// SNORD27 /// SNORD28 /// SNORD29 /// SNORD31 / Fold change vs veh, SNHG1 /// SNORD22 /// SNORD25 /// SNORD26 /// SNORD27 /// SNORD28 /// SNORD29 /// SNORD31 / Fold change (Aza/veh), C12orf56 (ProbeSet 11735607_a_at) / Fold change (ACY-1035/veh), C12orf56 (ProbeSet 11735607_a_at) / Fold change (Aza/veh), FGFR1OP (ProbeSet 11751329_s_at) / Fold change (ACY-1035/veh), FGFR1OP (ProbeSet 11751329_s_at) / Fold change (Aza/veh), VPS36 (ProbeSet 11739960_a_at) / Fold change (ACY-1035/veh), VPS36 (ProbeSet 11739960_a_at) / RFU SYPL1 (11715823_x_at) / Fold change /veh SYPL1 (11715823_x_at) / RFU IGFBP7 (11715501_s_at) / Fold change /veh IGFBP7 (11715501_s_at) / RFU REEP3 (11722064_at) / Fold change /veh REEP3 (11722064_at) / RFU IGLL1 (11728026_x_at) / Fold change /veh IGLL1 (11728026_x_at): dose or concentration left out as unconfirmed
# Conditions: ProbeSet 11739263_x_at; LIST D
smiles,measurement,value
Nc1ccc(-c2cccs2)cc1NC(=O)c1ccc2c(c1)cc(C1CC1)n2CCN1CCOCC1 [ACY-1035],"Fold change vs veh, VPS4B",0.95

# Reference: publication PMC5218480 (PLoS ONE, 2017)
